In US20030017976A1, “Therapeutic properties of liposome-encapsulated immunomodulators” (priority 1998, published 2003):
Values joined by “and” are separate entries in the source; they are usually repeats but may differ in a detail not shown here. Equal values may be shown once.

Columns and labels:
[1] = test system: tumor cells; test: Macrophage-mediated tumor cytotoxicity, target cells not named; format: cell-based; settings: available in MLV to 1×10^5 cells
Protocol: Cytotoxicity was assayed by measuring release of radioactivity from target cell DNA as described previously (Dong Z, et al. J Exp Med (1993) 177:1071-7). Briefly, tumor target cells in their exponential growth phase were incubated in medium containing 0.25 μCi/ml of [^3H]TdR (sp. Act. 2 Ci/mmol) (ICN Biomedicals, Inc., Irvine, Calif.) for 24 h. The cells were washed three times with HBSS to remove unbound radioactivity and then harvested by trypsinization (0.25% trypsin in 0.02% EDTA), washed, and resuspended in medium. Cells were plated (at 1×10^4/well) into wells containing control or test macrophages to achieve an E/T cell ratio of 10:1. At this density, macrophages incubated in medium (control) were not cytotoxic to neoplastic cells (Weinstein SL, et al. Proc Natl Acad Sci USA (1991) 88:4148-52; Dong Z, et al. JLeukoc Biol (1993) 53:53-60). […] The lysate was harvested with harvester 96 (Tomtec, Orange, Conn.) and counted for residual radioactivity in a liquid scintillation counter. Macrophage-mediated cytotoxicity was calculated as follows: […]
Efficient activation of macrophages by LPS requires priming by IFN-γ (Saiki I, et al. J Immunol (1985) 135:684-8). […] Tumor cytotoxicity was measured 72 h after the addition of radiolabeled tumor cells to the activated macrophages. […]

[2] = test system: L3.6pl human pancreatic tumors; test: Therapy of L3.6pl human pancreatic tumors in nude mice; format: in vivo, mouse; settings: CPT-11 100 mg/kg i.p. once a week +/− oral JBT 3002 (tablet) 0.05 mcg/dose
Protocol: Table 19 (A, B, C). Therapy of human pancreatic carcinoma liver metastasis. The pancreas of nude mice were injected with 1×10^6 viable human pancreatic cancer L3.6pl cells. […] This regimen was repeated on a weekly basis for 3 weeks. The mice were killed. Pancreatic tumors, liver metastases, and lymph node metastasis were quantified.

[3] = test system: peritoneal exudate macrophages (PEM); test: Nitrite (NO) production by mouse peritoneal exudate macrophages; format: cell-based; settings: available to 1×10^5 PEM
Protocol: Peritoneal exudate macrophages (PEM) were collected by peritoneal lavage from mice given an intraperitoneal injection of 2.0 ml of thioglycollate broth (Baltimore Biological Laboratory, Cockeysville, Md.) 4 days before harvest (Dong Z, O'Brian C A, et al. J Leukoc Biol (1993) 53:53-60; Xie K, Huang S, et al. Cancer Res (1995) 55:3123-31). The PEM were washed in Ca^+2- an Mg^2+-free HBSS and resuspended in serum-free medium: 1×10^5 cells were plated into each 38-mm^2 well of 96-2311 culture plates (Falcon Plastics, Oxnard, Calif.). After a 90-min incubation, the nonadherent cells were removed by washing with medium. More than 98% of the adherent cell populations were macrophages according to morphology and phagocytic criteria (Saiki I, et al. J Immunol (1985) 135:684-8). […] After treatment, the cultures were washed and macrophage-mediated cytotoxicity against different tumor targets was determined. […]
Nitrite accumulation in the culture supernatant was measured in a colorimetric assay as described previously (Ding A E, et al. J Immunol (1988) 141:2407-12). […] The mixtures were incubated 10 min with shaking, and A540 was measured with the use of a microplate reader (Model 3550; Bio-Rad Corp., San Francisco, Calif.). The concentration of nitrite was determined by comparing it with a standard solution of sodium nitrite in medium.

[4] = test system: human monocytes; test: Northern blot of cytokine mRNA in monocytes; format: cell-based; settings: LPS 100 ng/ml, MLV-JBT3002 500 nmol/ml, JBT3002 1 ng/ml; 1-3 h
Protocol: Total RNA was extracted using Tri reagent™ kit according to the manufacturer's instructions (Molecular Research Center, Inc., Cincinnati, Ohio). […] Cytokine and GAPDH and mRNA were detected using cDNA probes of Human TNF-α, IL-1β, IL-6 and rat glyceraldehyde-3-phosphate dehydrogenase (GAPDH) labeled by nick translation with α-^32P-CTP. Hybridizations were performed as described (Dong, Z. et al. J Natl. Cancer Inst. (1994) 86:913).

[5] = test system: CT-26P colon carcinoma; test: Combination therapy of CT-26P colon carcinoma with CPT-11 and oral liposomal JBT3002; format: in vivo, mouse; settings: day 17
Protocol: This course of therapy was repeated weekly for about three weeks prior to tissue harvest. Experimental Groups/Procedures: 40 Balb/c mice were divided into 8 groups of 5 mice each. On day 0, the spleens of the mice were injected with 15,000 cultured CT-26P cells. The groups were then treated as follows: The spleens of Balb/c mice were injected with 15,000 cultured CT-26P colon carcinoma cells on day 0. […] Treated mice received two weeks of chemotherapy and three weeks of the macrophage activator. Tissues were harvested on day 17. The spleens and livers were weighed, the extent of metastasis was graded (denoted below) and histology prepared.

With “N-hexadecanol-S-[2(R)-3-diodecanoyloxypropyl]-L-cysteinyl-L-alanyl-D-isoglutaminyl-glycyl-taurine sodium salt [JBT3002]” the “minimal concentration of JBT3002 for significant activation of tumoricidal properties in PEM” value [1] was 1.5 ng, the “Incidence LN met” value ([2]; 31 days) was 7/10 and the “Incidence WT/PC” value ([2]; 31 days) was 3/10. For the same substance, the Incidence liver met ([2]; 31 days) was 2/9, the “Tumor weight, Average” value ([2]; 31 days) was 706.22 mg and the “Tumor weight, Max” value ([2]; 31 days) was 981 mg. For the same substance, the “Tumor weight, Median” value ([2]; 31 days) was 733 mg, the “Tumor weight, Min” value ([2]; 31 days) was 362 mg and the “tumor weight (range)” value ([2]; 31 days) was “(362-981) mg”. For the same substance, the “Tumor weight, single animals” value ([2]; 31 days after tumor cell injection, sodium salt) was 862 mg and 871 mg and 981 mg and 621 mg and 362 mg and 733 mg and 559 mg and 820 mg and 547 mg, the “minimal concentration of JBT3002 required to generate significant levels of NO (20 μM)” value [3] was 0.12 to 0.15 ng and the “mRNA for TNF-α, IL-1β, and IL-6” value [4] was “High levels of mRNA for TNF-α, IL-1β, and IL-6”. For the same substance, the “Spleen Weights, mean” value ([5]; oral JBT3002 1 μg/dose in PC liposomes 3x/week alone) was 1.137 ± 0.628 grams and the “Liver Weights, mean” value ([5]; oral liposomal JBT3002 1 μg/dose 3x/week alone) was 1.842 ± 0.498 grams.
